Experimental data published in patent publication US20250360111A1, “COMPOSITIONS OF AGPAT4 INHIBITORS AND METHODS OF USING THEREOF TO TREAT CANCER” (The University of Hong Kong, priority 2024, published 2025).
Substitutions are numbered along the chain they refer to.

What was measured:
[1] = biological target: T1, acyltransferase activity of AGPAT4 (Homo sapiens, UniProt Q9NRZ5); assay: LPA to PA conversion assay; type: biochemical
T1 construct: The open reading frame (ORF) encoding the mRNA of AGPAT4 was cloned into the pDONR-221 donor vector; expressed in transfected cells; host or cells: Huh7 (lentiviral pEZ-Lv199-AGPAT4); also sorafenib-resistant HepG2 (endogenous AGPAT4)
T1 sequence (Q9NRZ5 1-378): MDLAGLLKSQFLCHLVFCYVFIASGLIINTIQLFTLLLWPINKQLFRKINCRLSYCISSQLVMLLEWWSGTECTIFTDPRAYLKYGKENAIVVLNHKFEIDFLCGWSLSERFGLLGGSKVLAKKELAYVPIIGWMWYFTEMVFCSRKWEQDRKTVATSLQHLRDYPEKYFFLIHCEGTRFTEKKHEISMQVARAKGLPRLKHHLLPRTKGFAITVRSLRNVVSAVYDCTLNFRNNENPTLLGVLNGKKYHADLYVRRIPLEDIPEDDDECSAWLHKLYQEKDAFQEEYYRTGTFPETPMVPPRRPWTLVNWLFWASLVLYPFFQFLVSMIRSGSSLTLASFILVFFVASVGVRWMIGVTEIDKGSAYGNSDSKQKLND
Protocol: (§1) Enzyme activity was measured by quantifying the conversion of [3H]-LPA to [3H]-PA following the protocol outlined in a previous study (43). Briefly, the enzymatic reaction was prepared by combining 10 μmol/L 18:1 Lyso PA (Avanti Polar Lipids), 50 μmol/L oleoyl CoA (Sigma-Aldrich), 1 μL 1-oleoyl-[oleoyl-9,10^−3H]-LPA (specific activity 30-60 Ci/mmol; PerkinElmer), and 1 mg/mL fatty acid-free BSA in 200 μL 100 mM Tris-HCl buffer at pH 7.4. The reaction was initiated by adding 30 μg of total protein (cell lysate) and incubating the mixture at 37° C. for 10 min. To stop the reaction, 0.5 mL of 1-butanol containing 1 M HCl was added to extract phospholipids to stop the reaction. The butanol extract was then dried under vacuum, and the LPA and PA were separated using a solvent system consisting of chloroform, methanol, acetic acid, and water (25:10:3:1). Radioactive spots were identified by comparing their migration with unlabelled LPA and PA standards and visualized using iodine vapours. The spots corresponding to [3H]-LPA and [3H]-PA were scraped and their radioactivity was measured using a Tri-Carb Liquid Scintillation Counter 4810 (PerkinElmer Life Sciences).

[2] = biological target: T2, acyltransferase activity of AGPAT4 (Homo sapiens, UniProt Q9NRZ5, C228A); assay: LPA to PA conversion assay; type: biochemical; conditions: Huh7 cells, AGPAT4 C228A mutant
T2 construct: The open reading frame (ORF) encoding the mRNA of AGPAT4 was cloned into the pDONR-221 donor vector; expressed in transfected cells; host or cells: Huh7 (lentiviral pEZ-Lv199-AGPAT4)
T2 sequence (Q9NRZ5 1-378 C228A): T1 sequence (Q9NRZ5 1-378) with C228A
Protocol: as §1

[3] = test system: MHCC97L and MHCC97H vs. Huh7 and LO2 cells; assay: XTT assay, viability assay and excess over bliss synergy analysis; type: cell-based, human; conditions: CL26 combined with sorafenib, 48 h
Protocol: (§2) Cells (1×10^3 cells/well) were seeded in 96-well plates and cultured in complete medium for 24 h. Subsequently, sorafenib and/or CL26 was added to the culture and incubated for 48 h. The XTT tetrazolium reagent (Gold Biotechnology) and phenazine methosulfate (Thermo Fisher Scientific) were premixed and added to each well. The absorbance at 450 nm was measured using a Victor 3 microplate reader (PerkinElimer). Drug interactions were evaluated using the bliss independence model. According to this model, the expected growth inhibition (Eexp) resulting from the combination of drugs A and B was calculated using the following equation: Eexp=Ea+Eb−Ea×Eb, with Ea representing the growth inhibition caused by drug A alone and Eb representing the growth inhibition caused by drug B alone. To assess drug interactions, the difference between the observed growth inhibition (Eobs) and expected growth inhibition (Eexp) was calculated.
(§3) 1×10^4 cells were seeded in a 6-well plate and cultured in complete medium for 24 h. Subsequently, sorafenib and/or CL26 was added to the culture and incubated for 48 h. Dead cells were carefully washed with PBS, and the remaining viable cells were fixed using 4% paraformaldehyde (Sigma-Aldrich) and visualized by staining with 2% crystal violet (Sigma-Aldrich).

[4] = test system: sorafenib-sensitive and sorafenib-resistant HepG2 cells; assay: as above; type: cell-based, human; conditions: CL26 combined with sorafenib, 48 h
Protocol: as §2, §3

## O=C(CCl)NCc1ccc(-c2nc3ccccc3s2)o1 [CL26, N-[[5-(2-benzothiazolyl)-2-furanyl]methyl]-2-chloroacetamide]
[1]; Huh7 cells overexpressing AGPAT4 and sorafenib-resistant HepG2 cells
  inhibition of acyltransferase activity (LPA to PA conversion): inhibition of acyltransferase activity of AGPAT4 in vitro was verified
[1]; sorafenib-resistant HCC PDX model #2
  inhibition of acyltransferase activity (PA conversion assay) in tumors: inhibitory effect of CL26 on acyltransferase activity in sorafenib-resistant PDX was confirmed
[2]
  LPA to PA conversion vs DMSO control: did not show difference in LPA to PA conversion
[3]
  synergistic effect with sorafenib (excess over bliss scores): synergistic effect was observed solely in cells with high AGPAT4-expressing MHCC97L and MHCC97H cells
[4]
  synergistic effect with sorafenib: exclusively observed in sorafenib-resistant HepG2 cells
